The numbers were not newly measured in publication PMC5742115, “Pharmacophore Modeling and in Silico/in Vitro Screening for Human Cytochrome P450 11B1 and Cytochrome P450 11B2 Inhibitors” (Frontiers in Chemistry, 2017), which cites them from elsewhere.

pIC50: −log10 of the molar value. Read-outs that look alike come from different tables or passages of the source.

One may read the pIC50 as the negative decadic logarithm of the IC50, by convention in mol/L.

For one series, the system named is CYP11B1. The settings on record: reported activity, supplementary Table 1, read-out: CYP11B1 IC50, cited from earlier work.
The test system of a further series is CYP11B2. The settings on record: reported activity, supplementary Table 1, read-out: CYP11B2 IC50, cited from earlier work.

Take `O=C1CCc2cc(-c3cncc(-c4ccc(F)c(F)c4)c3)cc3c2N1CC3` [CHEMBL1765224]: the negative logarithm of the IC50 (pIC50) in the series on CYP11B1 (ref Lucas et al., 2011) was 6.30; with CYP11B2 (ref Lucas et al., 2011), 8.64.
In the case of `O=C1CCc2cc(-c3cncc(-c4cc(F)cc(F)c4)c3)cc3c2N1CC3` [CHEMBL1765225], the pIC50 was 5.76 in the series on CYP11B1 (ref Lucas et al., 2011) and 7.74 in the series on CYP11B2 (ref Lucas et al., 2011).
On to `COc1ccccc1-c1cncc(-c2cc3c4c(c2)CCN4C(=O)CC3)c1` [CHEMBL1765226], for which the pIC50 is 6.89 in the series with CYP11B1 (ref Lucas et al., 2011) and 8.62 in the series with CYP11B2 (ref Lucas et al., 2011).
In the case of `COc1cccc(-c2cncc(-c3cc4c5c(c3)CCN5C(=O)CC4)c2)c1` [CHEMBL1765227], the pIC50 is 5.86 in the series with CYP11B1 (ref Lucas et al., 2011) and 8.34 with CYP11B2 (ref Lucas et al., 2011).
Take `COc1ccc(-c2cncc(-c3cc4c5c(c3)CCN5C(=O)CC4)c2)cc1` [CHEMBL1765228]: the pIC50 in the series on CYP11B1 (ref Lucas et al., 2011) was 7.68; with CYP11B2 (ref Lucas et al., 2011) it was 8.85.
As for `O=C1CCc2cc(-c3cncc(-c4cccc(O)c4)c3)cc3c2N1CC3` [CHEMBL1765229], the pIC50 with CYP11B1 (ref Lucas et al., 2011) is 7.36; in the series with CYP11B2 (ref Lucas et al., 2011), 8.92.
Turning to `O=C1CCc2cc(-c3cncc(-c4cccc(OC(F)(F)F)c4)c3)cc3c2N1CC3` [CHEMBL1765230], the negative logarithm of the IC50 (pIC50) with CYP11B1 (ref Lucas et al., 2011) was 5.69; with CYP11B2 (ref Lucas et al., 2011), 7.80.
Regarding `O=C1CCc2cc(-c3cncc(-c4cccc(C(F)(F)F)c4)c3)cc3c2N1CC3` [CHEMBL1765231], the pIC50 is 5.33 in the series on CYP11B1 (ref Lucas et al., 2011) and 7.48 in the series with CYP11B2 (ref Lucas et al., 2011).
With `S=C1CCc2cc(-c3cccnc3)cc3c2N1CC3` [CHEMBL1765232], the negative-log IC50 (pIC50) was 6.48 with CYP11B1 (ref Lucas et al., 2011) and 8.92 in the series with CYP11B2 (ref Lucas et al., 2011).
For the molecule `Brc1ncccc1Cn1ccnc1` [CHEMBL2011242], the negative-log IC50 (pIC50) is 7.21 in the series on CYP11B1 (ref Hille et al., 2011a) and 6.04 in the series with CYP11B2 (ref Hille et al., 2011a).
Regarding `Fc1ccccc1-c1ccc(Cn2ccnc2)cn1` [CHEMBL2011244], the negative logarithm of the IC50 (pIC50) in the series on CYP11B1 (ref Hille et al., 2011a) is 7.14; in the series with CYP11B2 (ref Hille et al., 2011a), 5.76.
Consider `Oc1ccc(-c2ccc(Cn3ccnc3)cn2)cc1F` [CHEMBL2011246], for which the pIC50 with CYP11B1 (ref Hille et al., 2011a) was 7.77; in the series on CYP11B2 (ref Hille et al., 2011a), 6.63.
Turning to `c1ccc2c(-c3ccc(Cn4ccnc4)cn3)cccc2c1` [CHEMBL2011253], the pIC50 was 7.17 in the series on CYP11B1 (ref Emmerich et al., 2013); 7.38 in the series on CYP11B1 (ref Hille et al., 2011a); 6.18 in the series with CYP11B2 (ref Emmerich et al., 2013); 5.68 in the series with CYP11B2 (ref Hille et al., 2011a).
Take `c1ccc2c(-c3ccc(Cn4ccnc4)cn3)cncc2c1` [CHEMBL2011260]: the pIC50 in the series with CYP11B1 (ref Hille et al., 2011a) was 7.02; in the series on CYP11B2 (ref Hille et al., 2011a) it was 6.04.
On to `c1csc(-c2ccc(Cn3ccnc3)cn2)c1` [CHEMBL2011261], for which the negative logarithm of the IC50 (pIC50) with CYP11B1 (ref Hille et al., 2011a) is 7.12; with CYP11B2 (ref Hille et al., 2011a), 5.91.
In the case of `Clc1ncc(Cn2ccnc2)cc1-c1cccs1` [CHEMBL2011430], the pIC50 was 7.14 in the series on CYP11B1 (ref Hille et al., 2011a) and 6.38 in the series on CYP11B2 (ref Hille et al., 2011a).
For `c1ccc2c(-c3ccc(Cn4ccnc4)cn3)csc2c1` [CHEMBL2011433], the negative-log IC50 (pIC50) in the series with CYP11B1 (ref Hille et al., 2011a) is 7.40; with CYP11B2 (ref Hille et al., 2011a), 5.94.
As for `c1cn(Cc2ccc(-c3ccoc3)nc2)cn1` [CHEMBL2011435], the negative logarithm of the IC50 (pIC50) is 7.12 in the series on CYP11B1 (ref Hille et al., 2011a) and 5.55 in the series on CYP11B2 (ref Hille et al., 2011a).
Turning to `c1coc(-c2cc(Cn3ccnc3)cnc2-c2ccco2)c1` [CHEMBL2011437], the negative logarithm of the IC50 (pIC50) in the series with CYP11B1 (ref Hille et al., 2011a) was 7.54; with CYP11B2 (ref Hille et al., 2011a), 6.08.
Take `CC(c1cc2c3c(c1)CCN3C(=O)CC2)n1ccnc1` (centres unmarked) [CHEMBL2163636]: the pIC50 was 7.77 with CYP11B1 (ref Yin et al., 2012) and 7.82 in the series on CYP11B2 (ref Yin et al., 2012).
Take `CCC(c1cc2c3c(c1)CCN3C(=O)CC2)n1ccnc1` (centres unmarked) [CHEMBL2163637]: the pIC50 in the series with CYP11B1 (ref Yin et al., 2012) was 8.19; in the series with CYP11B2 (ref Yin et al., 2012), 8.24.
For `CC(C)C(c1cc2c3c(c1)CCN3C(=O)CC2)n1ccnc1` (centres unmarked) [CHEMBL2163638], the negative logarithm of the IC50 (pIC50) with CYP11B1 (ref Yin et al., 2012) was 8.42; in the series on CYP11B2 (ref Yin et al., 2012), 8.85.
For `O=C1CCc2cc(C(C3CC3)n3ccnc3)cc3c2N1CC3` (centres unmarked) [CHEMBL2163639], the negative logarithm of the IC50 (pIC50) in the series on CYP11B1 (ref Yin et al., 2012) was 8.66; in the series on CYP11B2 (ref Yin et al., 2012), 7.62.
For `O=C1CCc2cc(C(C3CCC3)n3ccnc3)cc3c2N1CC3` (centres unmarked) [CHEMBL2163640], the pIC50 was 8.47 with CYP11B1 (ref Yin et al., 2012) and 8.38 with CYP11B2 (ref Yin et al., 2012).
Take `C=C(c1cc2c3c(c1)CCN3C(=O)CC2)n1ccnc1` [CHEMBL2163641]: the pIC50 with CYP11B1 (ref Yin et al., 2012) was 7.72; in the series with CYP11B2 (ref Yin et al., 2012) it was 7.00.
Take `O=C1CCc2cc(C(c3ccccc3F)n3ccnc3)cc3c2N1CC3` (centres unmarked) [CHEMBL2163642]: the pIC50 with CYP11B1 (ref Yin et al., 2012) was 7.40; with CYP11B2 (ref Yin et al., 2012), 7.72.
For the molecule `O=C1CCc2cc(C(c3cccc(F)c3)n3ccnc3)cc3c2N1CC3` (centres unmarked) [CHEMBL2163643], the negative logarithm of the IC50 (pIC50) in the series on CYP11B1 (ref Yin et al., 2012) is 7.54; with CYP11B2 (ref Yin et al., 2012), 7.74.
